Here are results for 23 molecules from patent EP1908472A1, “Silicon derivatives for PET imaging” (Bayer Schering Pharma Aktiengesellschaft, priority 2006, dated 2008).

Series [1] in a line: Hydrolytic stability of 19F fluorosilanes (hydrolysis to the hydroxy compound) at physiological pH. The settings on record: for remaining at 6 h / half-life: buffer; for remaining at 6 h: fraction of intact 19F compound after 6 hours under hydrolytic conditions at pH 7; for half-life: hydrolytic halflife, physiological pH (7.0), 19F compound, calculated from the kinetics; for rel. stability: ratio of hydrolytic halflife to radioactive halflife of 18-F (1.83 hours), pH 7.0. The format is physicochemical. The method, then:
The time dependent degree of hydrolysis of compounds of formula I in which X is a fluorine atom of isotope 19 to compounds of formula I in which X is a hydroxy group was determined at physiological pH (7.0). From the kinetics the hydrolytic halflife (t1/2) measured in hours [h] of compounds of formula I in which X is a fluorine atom of isotope 19 were calculated (Table 1, column 2).
The ratio of the hydrolytic halflifes of compounds of formula I in which X is a fluorine atom of isotope 19 and the radioactive halflife of the 18-F isotope (1.83 hours) is defined as relative stability (Table 1, column 3).
After 6 hours 90% of the 18-F isotope have been decayed.
Compounds of formula I in which X is a fluorine atom of isotope 18 are considered as useful for PET applications if the relative stability of their analogs bearing a fluorine atom of isotope 19 exceed a factor of four and if at least 50% of these compounds remain intact after 6 hours under hydrolytic conditions at pH 7.

For series [2] the following is noted: rats allowed to inhale the gas; shows fast release of fluoride in vivo; cited from earlier work.

The fraction remaining is the share of the starting amount still present when the sample was taken. The low end stands for a greater loss, the high end for greater stability. A word on the half-life: it is how long it takes for the measured level to halve. On to `CC(C)[Si](F)(c1ccc(CCCO)cc1)C(C)C` [4c - F, 3-[4-(Fluoro-diisopropyl-silanyl)-phenyl]-propan-1-ol], for which, in series [1], the amount remaining at 6 h turned out to be 90%, the half-life is more than 100 h and the rel. stability is reported as more than 54.6.

In the case of `CC(C)[Si](F)(CCCNC(=O)c1ccccc1)C(C)C` [22 - F, N-[3-(Fluoro-diisopropyl-silanyl)-propyl]-benzamide], in series [1], the amount remaining at 6 h turned out to be 83%, the half-life is 33.6 h and the rel. stability is given as 18.4.

Regarding `C[Si](C)(C)[18F]` [^18F-Fluorotrimethylsilane], the “uptake of ^18F in the bone” value in series [2] was “extensive uptake of ^18F in the bone”.

As to `CC(C)[Si](F)(c1ccc(COC2CCCCO2)cc1)C(C)C` (racemic) [3a - F, (RS)-Fluoro-diisopropyl-[4-(tetrahydro-pyran-2-yloxymethyl)-phenyl]-silane], in series [1], the amount remaining at 6 h worked out at 90%, the half-life was 49.4 h and the rel. stability was 27.0.

On to `CC(C)[Si](F)(c1ccc(CCO)cc1)C(C)C` [4b - F, 2-[4-(Fluoro-diisopropyl-silanyl)-phenyl]-ethanol], for which, in series [1], the fraction remaining at 6 h was 84%, the half-life is 66.8 h and the rel. stability came out at 36.5.

For the molecule `CC(C)C[Si](F)(CCCCC(=O)Nc1ccccc1)CC(C)C` [30a - 1F, 5-(Fluoro-diisobutyl-silanyl)-pentanoic acid phenylamide], in series [1], the fraction remaining at 6 h amounted to 71%, the half-life was 13.8 h and the rel. stability was 7.5.

Regarding `CC(C)[Si](F)(c1ccc(C(=O)O)cc1)C(C)C` [5a - F, 4-(Fluoro-diisopropyl-silanyl)-benzoic acid], in series [1], the fraction remaining at 6 h amounted to 66%, the half-life was 10.9 h and the rel. stability is listed as 6.1.

Consider `F[Si](c1ccccc1)(c1ccccc1)c1ccc(CCOC2CCCCO2)cc1` (racemic) [3f - F, (RS)-Fluoro-diphenyl-{4-[2-(tetrahydro-pyran-2-yloxy)-ethyl]-phenyl}-silane], for which, in series [1], the share remaining at 6 h was less than 1%, the half-life was 0.07 h and the rel. stability is recorded as 0.04.

Regarding `CC(C)[Si](F)(c1ccc(CC(=O)O)cc1)C(C)C` [5b - F, [4-(Fluoro-diisopropyl-silanyl)-phenyl]-acetic acid], in series [1], the share remaining at 6 h was 82%, the half-life is 24.7 h and the rel. stability amounted to 13.5.

As for `CC(C)C[Si](F)(CC(C)C)c1ccc(C(=O)O)cc1` [5g - F, 4-(Fluoro-diisobutyl-silanyl)-benzoic acid], in series [1], the amount remaining at 6 h was found to be 31%, the half-life is 3.5 h and the rel. stability is 1.9.

Consider `CC(C)[Si](F)(c1ccc(CO)cc1)C(C)C` [4a -F, [4-(Fluoro-diisopropyl-silanyl)-phenyl]-methanol], for which, in series [1], the share remaining at 6 h is 85%, the half-life is 28.1 h and the rel. stability was 15.4.

`CC(C)[Si](F)(c1cccc(CCOC2CCCCO2)c1)C(C)C` (racemic) [3e - F, (RS)-Fluoro-diisopropyl-{3-[2-(tetrahydro-pyran-2-yloxy)-ethyl]-phenyl}-silane]: in series [1], the amount remaining at 6 h was more than 95%, the half-life was more than 100 h and the rel. stability is on record as more than 54.6.

As to `CC(C)C[Si](F)(CC(C)C)c1ccc(CCOC2CCCCO2)cc1` (racemic) [Compound 3h-F, (RS)-Fluoro-diisobutyl-{4-[2-(tetrahydro-pyran-2-yloxy)-ethyl]-phenyl}-silane], in series [1], the fraction remaining at 6 h was determined as 79%, the half-life was 19.2 h and the rel. stability was 10.7.

Turning to `CC(C)[Si](F)(c1ccc(CCCOC2CCCCO2)cc1)C(C)C` (racemic) [3c - F, (RS)-Fluoro-diisopropyl-{4-[3-(tetrahydro-pyran-2-yloxy)-propyl]-phenyl}-silane], in series [1], the fraction remaining at 6 h came to 95%, the half-life was 99.9 h and the rel. stability was 54.6.

In the case of `CC(C)[Si](F)(c1ccc(CCC(=O)O)cc1)C(C)C` [5c - F, 3-[4-(Fluoro-diisopropyl-silanyl)-phenyl]-propionic acid], in series [1], the fraction remaining at 6 h turned out to be 92%, the half-life was 59 h and the rel. stability is 32.2.

`CC(C)[Si](F)(c1cccc(CC(=O)O)c1)C(C)C` [5e - F, [3-(Fluoro-diisopropyl-silanyl)-phenyl]-acetic acid]: in series [1], the amount remaining at 6 h stood at 78%, the half-life is 20 h and the rel. stability is given as 10.9.

For the molecule `CC(C)[Si](F)(c1ccc(CCOC2CCCCO2)cc1)C(C)C` (racemic) [3b - F, (RS)-Fluoro-diisopropyl-{4-[2-(tetrahydro-pyran-2-yloxy)-ethyl]-phenyl}-silane], in series [1], the share remaining at 6 h worked out at 94%, the half-life was 76.4 h and the rel. stability is given as 41.8.

On to `CC(C)[Si](F)(c1cccc(CCCO)c1)C(C)C` [4d - F, 3-[3-(Fluoro-diisopropyl-silanyl)-phenyl]-propan-1-ol], for which, in series [1], the share remaining at 6 h amounted to 89%, the half-life is 43.3 h and the rel. stability is given as 23.7.

For the molecule `CC(C)[Si](F)(c1cccc(CCC(=O)O)c1)C(C)C` [5d - F, 3-[3-(Fluoro-diisopropyl-silanyl)-phenyl]-propionic acid], in series [1], the share remaining at 6 h turned out to be 81%, the half-life was 22.2 h and the rel. stability was 12.1.

For `CC(C)C[Si](F)(CC(C)C)c1ccc(COC2CCCCO2)cc1` (racemic) [Compound 3g-F, (RS)-Fluoro-diisobutyl-[4-(tetrahydro-pyran-2-yloxymethyl)-phenyl]-silane], in series [1], the fraction remaining at 6 h was 59%, the half-life was 8.1 h and the rel. stability amounted to 4.5.

As to `CC(C)C[Si](F)(CC(C)C)c1ccc(CC(=O)O)cc1` [5h - F, [4-(Fluoro-diisobutyl-silanyl)-phenyl]-acetic acid], in series [1], the amount remaining at 6 h was determined as 61%, the half-life is 8.7 h and the rel. stability is 4.8.

In the case of `CC(C)[Si](F)(c1cccc(CCO)c1)C(C)C` [4e - F, 2-[3-(Fluoro-diisopropyl-silanyl)-phenyl]-ethanol], in series [1], the fraction remaining at 6 h was 78%, the half-life was 23.3 h and the rel. stability was 12.7.

For `CC(C)[Si](F)(c1cccc(CCCOC2CCCCO2)c1)C(C)C` (racemic) [3d - F, (RS)-Fluoro-diisopropyl-{3-[3-(tetrahydro-pyran-2-yloxy)-propyl]-phenyl}-silane], in series [1], the amount remaining at 6 h is more than 95%, the half-life was more than 100 h and the rel. stability is reported as more than 54.6.
